According to publication PMC6896740, “Safety, tolerability, pharmacokinetics, and pharmacodynamics of PF-06650833, a selective interleukin-1 receptor-associated kinase 4 (IRAK4) inhibitor, in single and multiple ascending dose randomized phase 1 studies in healthy subjects” (Arthritis Research & Therapy, 2019):

Key:
[1] = tested on: high-sensitivity C-reactive protein (hsCRP); assay: Study 2 (MAD) serum hsCRP pharmacodynamics; type: in vivo, human
Text: (§1) The primary objective of study 2 was to determine the safety and tolerability of MAD of orally administered IR and MR formulations of PF-06650833 after a standard meal in healthy adult subjects. The secondary objective was to evaluate the plasma and urine PK profiles of PF-06650833 after repeat dosing. Exploratory objectives were to assess the effects of PF-06650833 on exploratory biomarkers of PD activity, including high-sensitivity C-reactive protein (hsCRP), and to evaluate cholesterol/hydroxycholesterol ratios as an endogenous marker for cytochrome P450 3A (CYP3A) induction or inhibition.
(§2) For both studies, samples of blood (and urine in study 2) were taken for evaluation of PK/PD parameters (see Additional file 1: Supplemental Methods). PK samples were obtained at the nominal time relative to dosing (± 10%). Plasma and urine samples were analyzed using validated, sensitive, and specific liquid chromatography tandem mass spectrometric methods (at Pfizer Inc., Groton, CT, USA, for study 1 and at Worldwide Pharmacokinetics, Dynamics and Metabolism, Cambridge, MA, USA, for study 2). The lower limit of quantification for PF-06650833 in plasma was 0.0500 ng/mL. The lower limit of quantification for PF-06650833 in urine was 1.00 ng/mL. Serum samples were also analyzed for hsCRP, and plasma samples were analyzed for 4β-hydroxycholesterol and cholesterol.
The safety analysis set was defined as all subjects who received at least one dose of study treatment, and data were summarized descriptively. The PK concentration analysis set was defined as all enrolled, treated subjects who had at least one concentration in at least one treatment period. […]
(§3) 35 Plasma samples were analyzed using a validated, sensitive , and specific liquid […]
38 MA, USA for Study 2). The lower limit of quantification (LLOQ) for PF-06650833 in plasma
39 was 0.0500 ng/mL. Between-day assay accuracy values were also calculated (not shown). […]
44 cohorts. Urine samples were also analyzed using a validated, sensitive , and specific LC-MS […]

CYP3A = assay: 4β-hydroxycholesterol/cholesterol ratio as endogenous marker of CYP3A; type: in vivo, human; details: MAD, doses up to 750 mg BID
Text: as §1
as §2, with “PK samples were obtained at the nominal time relative to dosing (± 10%).” left out, “cholesterol. […]” for “cholesterol.”
as §3

healthy adult subjects = assay: Study 2 (MAD) safety and tolerability: TEAEs, urine crystals; type: in vivo
Protocol: Study 2 (B7921002; NCT02485769) was a 14-day, phase 1, randomized, double-blind, sponsor-open, placebo-controlled, sequential group, MAD study in healthy adult subjects (Fig. 1b).
Subjects were enrolled sequentially into seven cohorts. Within each cohort, eight subjects and two subjects were randomized to receive PF-06650833 and placebo, respectively. Doses for all cohorts were administered after a standard (not high-fat) meal. Multiple dosing regimens (once daily [QD] 24 h apart, twice daily [BID] 12 h apart, three times per day [TID] 8 h apart, and four times per day [QID] 6 h apart) were used to provide required total daily doses. In the final dosing scheme, multiple oral doses of PF-06650833 IR suspension formulations at 25, 100, 250, and 750 mg BID and 1000 mg QID were administered in cohorts 1–5. PF-06650833 IR 330 mg TID (cohort 6) and an MR tablet at a dose of 300 mg QD (cohort 7) were also evaluated (see Fig. 1b for final dosing scheme).
Dose escalation (cohorts 1–5) or dose selection (cohorts 6–8) was based upon the evaluation of ≥ 7 days of safety and tolerability for all subjects and ≥ 12 h of PK data for at least six subjects receiving PF-06650833. To establish an MTD, dose escalation was to cease when the limit of tolerability was achieved.
Safety assessments included incidence and severity of treatment-emergent AEs (TEAEs) and discontinuation due to TEAEs, incidence of treatment-emergent clinical laboratory abnormalities, and proportion of subjects meeting with pre-defined criteria for potential clinical concern in vital signs and electrocardiogram (ECG) parameters.
The safety analysis set was defined as all subjects who received at least one dose of study treatment, and data were summarized descriptively. The PK concentration analysis set was defined as all enrolled, treated subjects who had at least one concentration in at least one treatment period. The PK parameter analysis set was defined as all enrolled, treated subjects who had at least one of the PK parameters of interest in at least one treatment period. The PD analysis set was defined as all enrolled subjects who received at least one dose of PF-06650833 and had at least one PD parameter. PK/PD data were summarized descriptively.
PK parameters were calculated using non-compartmental analysis of concentration-time data. For study 1 only, data from cohort 1 (period 4 [IR 30 mg] versus period 5 [IR 30 mg + food]) and cohort 3 (period 2 [MR 30 mg] versus period 3 [MR 30 mg + food]) were used to estimate the effect of food intake. Cmax and AUC were calculated for each subject and treatment, with and without food, after which a within-subject difference could be found between fed (high-fat meal) and fasted doses. Analysis of covariance was used to model these within-subject differences and to calculate 95% confidence intervals (CIs) for the differences for each dose (IR 30 mg and MR 30 mg). For study 2 only, the amounts of PF-06650833 in urine and renal clearance were listed and summarized descriptively. As part of the routine safety laboratory monitoring, the presence of any atypical crystals in urine specimens was semi-quantitatively assessed microscopically by typical histopathologic methods and scored as numbers of crystals per high power field (hpf); higher abundance (moderate or many) was defined as ≥ 15/hpf. No formal interim analyses were conducted.

[2] = IR 100 mg BID, 14 days, fed, 8 evaluable

## CC[C@@H]1[C@H](F)C(=O)N[C@@H]1COc1nccc2cc(C(N)=O)c(OC)cc12 [PF-06650833, 1-{[(2S,3S,4S)-3-Ethyl-4-fluoro-5-oxopyrrolidin-2-yl]methoxy}-7-methoxyisoquinoline-6-carboxamide]
[1]; IR ≥ 250 mg BID and MR 300 mg QD
  Day by which maximal hsCRP reduction was reached: ≤ 7 days
[1]; IR ≥ 250 mg BID and MR 300 mg QD, multiple dosing
  Change from baseline in serum hsCRP: sustained decrease
[1]; day 14, highest dose groups
  Reduction from baseline in hsCRP (geometric mean percentage): 60–70%
CYP3A
  CYP3A induction or inhibition based on cholesterol/hydroxycholesterol ratio: no apparent trend for CYP3A induction or inhibition
Healthy adult subjects; [2]
  Infections and infestations: subjects with AE, all causalities (treatment-related): 1 (0)
  Upper respiratory tract infection: subjects with AE, all causalities (treatment-related): 1 (0)
Healthy adult subjects; IR 330 mg TID, 14 days, fed, 8 evaluable
  Nasal congestion: subjects with AE, all causalities (treatment-related): 1 (1)
Healthy adult subjects; IR 750 mg BID, 14 days, fed, 8 evaluable
  Infections and infestations: subjects with AE, all causalities (treatment-related): 1 (1)
Healthy adult subjects; MR 300 mg QD, 14 days, fed, 8 evaluable
  Infections and infestations: subjects with AE, all causalities (treatment-related): 1 (0)
Healthy adult subjects; all dose groups
  Serious AEs or deaths: No serious AEs or deaths
Healthy adult subjects; in vivo
  Severity of TEAEs: mild or moderate
Healthy adult subjects; multiple doses up to IR 1000 mg QID, MR 300 mg QD
  Maximum tolerated dose: not established
